Assay results taken from patent publication US20140179681A1, “METHODS AND COMPOSITIONS OF TARGETED DRUG DEVELOPMENT” (priority 2010, published 2014).
Where a name gives a salt, the structure may show the parent alone. Read-outs that look alike come from different tables or passages of the source.

Columns and labels:
[1] = tested on: epithelial carcinoma A431 cell line; assay: MTT Cell Proliferation Assay, A431 cells; type: cell-based; conditions: for MTT Assay IC50(A431/MDBK): ratio in parentheses: ratio MDBK IC50 / A431 IC50 (selectivity)
Outline: (§1)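 Viability was measured by mitochondrial MTT reduction after cells were exposed to compound for 3 days in reduced-serum medium. Inhibition was calculated per plate against 0.5% DMSO controls.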

MDBK line = assay: MTT Cell Proliferation Assay, MDBK cells; type: cell-based, bovine
Outline: as §1

EGFR = target: T1, EGFR (Homo sapiens, UniProt P00533); assay: EGFR in-cell Western (ICW) screening protocol (EGFR inhibition assay); type: cell-based; design: ICW 1 / ICW 2 / ICW Avg: unit not given here; conditions: for ICW Avg / ICW 1 / ICW 2: ICW assay; for ICW Avg: average of runs 1 and 2; for ICW 1: run 1; for ICW 2: run 2; for ICW assay: Table 10
T1 construct: host or cells: A431
Outline: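 Serum-starved A431 cells (2 h) were pretreated with compound for 4 h at 37° C, then stimulated with EGF (10 ng/ml final, or 6.6 or 12.5 ng/ml in some runs) for 10 min. After formaldehyde fixation, phospho-EGFR (Tyr1173, or Tyr1045 in some runs) and total EGFR were detected by in-cell Western immunostaining.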

[2] = Homo sapiens, A-431, A431 cells, first value of cell, read-out: MTT Assay IC50(A431/MDBK): A431
[3] = Bos taurus, MDBK, MDBK cells, second value of cell, read-out: MTT Assay IC50(A431/MDBK): MDBK
[4] = Homo sapiens, A-431, 72 h, Table 10, first of x/y(ratio): A431, three day treatment, unit not printed (doses in μM), read-out: MTT assay (first value)
[5] = Bos taurus, MDBK, 72 h, Table 10, second of x/y(ratio): MDBK, three day treatment, unit not printed (doses in μM), read-out: MTT assay (second value)
[6] = % Inhibition of EGF dependent EGFR phosphorylation in A431 cells, compound 125 μM in assay
[7] = A431 cells, first value of cell, read-out: MTT Assay IC50(A431/MDBK): A431
[8] = MDBK cells, second value of cell, read-out: MTT Assay IC50(A431/MDBK): MDBK
[9] = Homo sapiens, A-431, first value of 'a/b (c)', taken as A431 cells, read-out: MTT Screen, first value of cell
[10] = Bos taurus, MDBK, second value of 'a/b (c)', taken as MDBK cells, read-out: MTT Screen, second value of cell

T1 sequence (P00533 25-1210): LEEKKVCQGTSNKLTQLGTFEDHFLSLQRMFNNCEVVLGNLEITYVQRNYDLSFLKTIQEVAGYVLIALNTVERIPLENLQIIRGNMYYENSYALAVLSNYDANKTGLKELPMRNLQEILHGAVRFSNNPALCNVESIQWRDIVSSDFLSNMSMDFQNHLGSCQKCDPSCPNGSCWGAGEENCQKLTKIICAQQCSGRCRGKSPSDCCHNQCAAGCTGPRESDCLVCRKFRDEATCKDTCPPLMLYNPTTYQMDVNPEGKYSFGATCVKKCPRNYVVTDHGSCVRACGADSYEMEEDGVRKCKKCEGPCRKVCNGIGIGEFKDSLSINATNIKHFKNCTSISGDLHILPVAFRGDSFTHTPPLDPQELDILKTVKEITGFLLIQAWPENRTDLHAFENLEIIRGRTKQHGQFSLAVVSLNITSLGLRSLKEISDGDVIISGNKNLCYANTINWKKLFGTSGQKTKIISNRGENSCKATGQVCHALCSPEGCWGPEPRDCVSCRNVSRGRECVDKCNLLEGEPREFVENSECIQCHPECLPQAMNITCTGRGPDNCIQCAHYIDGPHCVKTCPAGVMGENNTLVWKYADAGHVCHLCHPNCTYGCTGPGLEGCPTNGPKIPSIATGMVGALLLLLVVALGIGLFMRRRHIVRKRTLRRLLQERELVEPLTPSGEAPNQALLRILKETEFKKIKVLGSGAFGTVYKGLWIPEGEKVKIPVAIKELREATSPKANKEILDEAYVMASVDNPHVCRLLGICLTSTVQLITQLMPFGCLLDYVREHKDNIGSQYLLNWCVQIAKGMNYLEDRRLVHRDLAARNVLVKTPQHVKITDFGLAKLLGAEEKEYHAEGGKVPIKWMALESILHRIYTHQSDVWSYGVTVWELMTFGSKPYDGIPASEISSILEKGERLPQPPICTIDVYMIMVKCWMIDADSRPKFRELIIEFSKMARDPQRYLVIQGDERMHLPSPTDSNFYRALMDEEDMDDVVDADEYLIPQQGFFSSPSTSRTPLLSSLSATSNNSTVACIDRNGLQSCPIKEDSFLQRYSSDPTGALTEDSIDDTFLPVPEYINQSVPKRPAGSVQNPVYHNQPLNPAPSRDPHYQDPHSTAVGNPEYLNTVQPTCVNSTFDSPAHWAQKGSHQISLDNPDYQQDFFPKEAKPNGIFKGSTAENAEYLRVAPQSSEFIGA

COc1cccc2c(C)nc(Nc3nc(C)cc(=O)[nH]3)nc12 [11772 + TFA]
IC50 [1, 2]: 9.75 µM | MTT Assay IC50(A431/MDBK): ratio in parentheses [1]: 0.93 | IC50 (MDBK line; [3]): 9.04 µM | ICW Avg (EGFR): 77.09 | ICW 1 (EGFR): 80.68 | ICW 2 (EGFR): 73.50

CCc1ccc2nc(Nc3ncc4c(n3)CC(c3cccc(Cl)c3)CC4=O)nc(C)c2c1 (stereo not shown) [11680 + TFA]
IC50 [1, 2]: 21.9 µM | MTT Assay IC50(A431/MDBK): ratio in parentheses [1]: 0.80 | IC50 (MDBK line; [3]): 17.4 µM | ICW Avg (EGFR): 27.24 | ICW 1 (EGFR): 32.59 | ICW 2 (EGFR): 21.89

CC(C)c1ccc(NC(=S)Nc2ccc(S(=O)(=O)Nc3ccc(Cl)cc3)cc2)cc1 [AD4-12503]
IC50 [1, 4]: 4.05 µM | IC50 (MDBK line; [5]): 5.43 µM | ICW assay (EGFR; [6]): 79.4624

CCCc1cc(=O)[nH]c(Nc2nc(C)c3cc(C)c(C)cc3n2)n1 [12673 + TFA]
IC50 [1, 7]: 33.1 µM | MTT Assay IC50(A431/MDBK): ratio in parentheses [1]: 0.68 | IC50 (MDBK line; [8]): 22.5 µM | ICW Avg (EGFR): 52.80 | ICW 1 (EGFR): 44.70 | ICW 2 (EGFR): 60.90

CN(Cc1ccccc1)S(=O)(=O)c1ccc(NC(=S)NC(=O)/C=C/c2ccccc2)cc1 [AD4-12126]
IC50 [1, 9]: 14.9 µM | IC50 (MDBK line; [10]): 41.9 µM | ICW Screen (ICW Inhibition) (EGFR): 37.795

CCOC(=O)c1c(N)nc(Nc2nc(C)c3cc(C)ccc3n2)nc1-c1ccccc1 [compound 11812]
IC50 [1, 2]: 14.7 µM | IC50 (MDBK line; [3]): 31.6 µM | ICW Avg (EGFR): 56.84 | ICW 1 (EGFR): 51.90 | ICW 2 (EGFR): 61.77

Cc1nc(Nc2nc(CSc3ccccn3)cc(=O)[nH]2)nc2ccccc12 [12740 + TFA]
IC50 [1, 7]: 49.4 µM | MTT Assay IC50(A431/MDBK): ratio in parentheses [1]: 0.48 | IC50 (MDBK line; [8]): 23.6 µM | ICW Avg (EGFR): 28.34 | ICW 1 (EGFR): 28.77 | ICW 2 (EGFR): 27.91

O=S(=O)(Nc1ccccc1)c1ccc(NC(=S)Nc2cccc(Cl)c2)cc1 [AD4-12842]
IC50 [1, 4]: 6.72 µM | IC50 (MDBK line; [5]): 5.55 µM | ICW assay (EGFR; [6]): 80.8965

Cc1ccc(NC(=S)Nc2ccc(S(=O)(=O)Nc3ccc(Cl)cc3)cc2)cc1 [AD4-12413]
IC50 [1, 4]: 6.83 µM | IC50 (MDBK line; [5]): 6.35 µM | ICW assay (EGFR; [6]): 35.1946

Cc1cc(C)c(NS(=O)(=O)c2ccc(NC(=S)Nc3ccc(S(C)(=O)=O)cc3)cc2)c(C)c1 [AD4-11427]
IC50 [1, 4]: 12 µM | IC50 (MDBK line; [5]): 14.5 µM | ICW assay (EGFR; [6]): 44.904

O=S(=O)(Nc1cc(Cl)cc(Cl)c1)c1ccc(NC(=S)Nc2cccc(C(F)(F)F)c2)cc1 [AD4-12509]
IC50 [1, 4]: 5.49 µM | IC50 (MDBK line; [5]): 5.24 µM | ICW assay (EGFR; [6]): 140.975

Cc1cc(NS(=O)(=O)c2ccc(NC(=S)NC(=O)/C=C/c3ccccc3)cc2)no1 [AD4-12273]
IC50 ([1]; first value of 'a/b (c)', taken as A431 cells, read-out: MTT Screen, first value of cell): 31.7 µM | IC50 (MDBK line; second value of 'a/b (c)', taken as MDBK cells, read-out: MTT Screen, second value of cell): 42.9 µM | ICW Screen (ICW Inhibition) (EGFR): 33.104

Cc1ccc(NS(=O)(=O)c2ccc(NC(=S)NC(=O)CCc3ccccc3)cc2)cc1C [AD4-11419]
IC50 [1, 9]: 31.3 µM | IC50 (MDBK line; [10]): 38.8 µM | ICW Screen (ICW Inhibition) (EGFR): 40.289

CCCc1cc(=O)[nH]c(Nc2nc(C)c3cc(C)c(C)cc3n2)n1 [12654 + TFA]
IC50 [1, 7]: 16 µM | MTT Assay IC50(A431/MDBK): ratio in parentheses [1]: 0.79 | IC50 (MDBK line; [3]): 12.6 µM | ICW Avg (EGFR): 36.07 | ICW 1 (EGFR): 37.92 | ICW 2 (EGFR): 34.22

Cc1cc(C)c2oc(=O)cc(CN3CCN(Cc4ccc5c(c4)OCO5)CC3)c2c1 [AD4-10174]
IC50 ([1]; Homo sapiens, A-431, Table 11, first of x/y(ratio): A431, unit inferred, read-out: MTT Follow-up (first value)): 4.42 µM | IC50 ([1]; Homo sapiens, A-431, Table 11, first of x/y(ratio): A431, unit not printed (doses in μM), read-out: MTT Screen (first value)): 2.26 µM | IC50 (MDBK line; Bos taurus, MDBK, Table 11, second of x/y(ratio): MDBK, unit inferred, read-out: MTT Follow-up (second value)): 101 µM | IC50 (MDBK line; Bos taurus, MDBK, Table 11, second of x/y(ratio): MDBK, unit not printed (doses in μM), read-out: MTT Screen (second value)): 8.58 µM | ICW Screen (EGFR; Table 11, % Inhibition of EGF dependent EGFR phosphorylation in A431 cells, compound 125 μM in assay): 45.85

Cc1cc(C)nc(NS(=O)(=O)c2ccc(NC(=S)NC(=O)/C=C/c3ccc(F)cc3)cc2)n1 [AD4-11871]
IC50 [1, 9]: 49.7 µM | IC50 (MDBK line; [10]): 41.8 µM | ICW Screen (ICW Inhibition) (EGFR): 45.776

Cc1ccc(C2CC(=O)c3cnc(Nc4nc(C)c5cc(C)c(C)cc5n4)nc3C2)cc1 (stereo not shown) [11670 + TFA]
IC50 [1, 2]: 13.5 µM | MTT Assay IC50(A431/MDBK): ratio in parentheses [1]: 1.80 | IC50 (MDBK line; [3]): 24.3 µM | ICW Avg (EGFR): 25.27 | ICW 1 (EGFR): 34.91 | ICW 2 (EGFR): 15.63

CCOC(=O)c1c(N)nc(Nc2nc(C)c3cc(OC)ccc3n2)nc1-c1ccccc1 [compound 12679]
IC50 [1, 2]: 15.1 µM | MTT Assay IC50(A431/MDBK): ratio in parentheses [1]: 2.78 | IC50 (MDBK line; [3]): 42 µM | ICW Avg (EGFR): 70.50 | ICW 1 (EGFR): 73.98 | ICW 2 (EGFR): 67.01
